Molecules are shown by their SMILES. Like-named read-outs stand apart in the source and are kept apart here.

From patent US20260035364A1, “BICYCLIC TETRAHYDROTHIAZEPINE DERIVATIVES” (Hoffmann-La Roche Inc., priority 2022, published 2026) come the findings set out here.

The subject of one experiment is primary human T-cells. In words: IL2 secretion measurements in CD3-stimulated T-cells. It is filed as cell-based. Particulars: CD3 condition; for Emax: read-out: Emax IL2 (% activation); for EC50: IL2 secretion after 24 hours, read-out: Tcell IL2 CD3 EC50. The procedure:
As readouts for T-cell activation, IL2 secretion after 24 hours and proliferation after 5 days was measured. Increases in IL2 secretion and proliferation upon compound treatment were assessed as the % of the maximum of reference compound A1. WO 2016/139181 discloses reference compound A1 as example 70. As a counter screen and to make sure that no unwanted TCR-independent activation was triggered, PBS conditions were run for all compounds.
Expanded primary human T-cells were thawed and cultured in RPMI 1640 (Gibco, #61870-010)+5% human serum (HS, Sigma, #H3667)+1 mM Sodium Pyruvate (Gibco, #11360-039)+50 μM 2-mercaptoethanol (Gibco, #31350-010) and 1× Pen-Strep (Life Technologies, #15140122) medium at density of 2 Mio/ml for 3 hours in 5% CO2, 37° C. and 95% humidity. For coating of plates, […] or PBS++ with CD3 antibody (concentration depending on donor and determined by CD3 titrations) was added 100 μl/well to Poly-D Lysine coated 96-well plates. Plates were sealed and incubated at room temperature for 3 hours on a table-top rocking platform. After incubation, plates were washed once with PBS−− and filled with 40 μl/well culture medium only. Compounds were then added (see next section) to medium only plates. After 3 hours of culturing the T-cells, cells were filtered through a cell strainer (Miltenyi Biotech, #130-041-407), counted again and concentration was adjusted to 1.25 Mio/ml.
Cells were then seeded 80 μl/well to the 40 μl/well including dispensed compounds according to plate layout. By adding cells, compounds were further diluted 1:3, and resulting in 100k cells/120 µl/well. After 24 hours 40 μl of supernatant was collected carefully from the top while not disturbing the cells and transferred into a round bottom 96 well plate. Collected and frozen supernatant was used for detection of IL2 using the IL-2 Human ProQuantum Immunoassay Kit (Invitrogen) or using the Human IL-2 ELISA Kit (Thermo Fisher).
Compound Treatment Compounds were added in a 5 or 6 pt dose response with the Tecan D300e Digital Dispenser, all conditions 3 times more concentrated than the end-concentration, since cells are added afterwards (80p1 cells to 40p1 prepared medium with treatment). The DR was starting at 20 μM or 10 μM final top concentration and a dilution factor of 3.333. The positive control was the reference compound A1 that was added in a dose response as well, additionally to 3 wells of only 20 μM representing the positive stimulator control. All wells were normalized with DMSO to a final concentration of 0.6% (0.2% end-concentration).
The immunoassay is done following the manufacturer's manual (Invitrogen, #A35603).
Additional information: For the immunoassay, MicroAmp™ EnduraPlate™ Optical 384-Well plates are used. Frozen supernatant is thawed and centrifuged for 5 minutes at 1000×g, both steps at 4° C. After centrifugation, required sample amount is taken from the top, and in a separate LightCycler V-bottom plate (working plate) diluted with assay dilution buffer, dilution factor depending on the PBS or CD3 condition but at least 1:3. IL-2 standard and blanks are prepared in the same V-bottom plate, standard with a range of 0.0128-5000 pg/ml (extended version). After preparation, 5 μl of sample dilutions or standard/blanks are transferred to the optical 384-well plate (assay plate) and the 10 μl reaction protocol is being followed. For measurement, the QuantStudio 12K Flex system is used. Raw data is extracted and IL-2 concentrations are calculated with the Thermo Fisher online app (apps.thermofisher.com/apps/proquantum).
ELISA is done following the manufacturer's manual (Thermo Fisher Scientific, #88-7025-88). Additional information: For the ELISA Nunc MaxiSorp 96 well plates are used. Frozen supernatant is thawed and centrifuged for 5 minutes at 1000×g, both steps at 4° C. […]

In another experiment the target is DGKalpha (Homo sapiens, UniProt P23743). In words: In vitro DGK inhibition assay (ADP-Glo, liposomes), DGKalpha. It is filed as biochemical. Also on record: hDGKalpha(1-735)-N-His; His (N); made in house; host or cells: Sf21 insect cells (baculovirus). Particulars: 4 nM DGK α, 25 μM ATP, 125 uM DLG in liposomes, 1 hour reaction. The procedure: DGK α and ζ kinases use ATP to phosphorylate the substrate 1,2-dilauroyl-sn-glycerol (DLG, incorporated in the liposomes). ATP is converted to ADP as a result of this enzymatic reaction. After the kinase reaction, an ATP-depletion reagent is added to terminate the kinase reaction and deplete any remaining ATP, leaving only ADP. Second, a detection reagent is added to simultaneously convert ADP to ATP and allow the newly synthesized ATP to be converted to light using a coupled luciferase/luciferin reaction.
Full length DGKA and Z were expressed in Sf21 insect cells by infecting the cells with the baculovirus stock at MOI of 2. Purification of both enzymes was performed as previously described by Takahashi et al., PeerJ, 2018 (Takahashi, D.; Sakane, F. Expression and purification of human diacylglycerol kinase alpha from baculovirus-infected insect cells for structural studies. PeerJ 2018, 6, No. e5449).
A concentrated liposome solution was prepared in assay buffer without DTT and BSA: 2 mM of DLG in 21 mM of total liposome (2 mM DLG/8 mM PS/11 mM PC). The reaction mixtures contain the assay buffer with a final DLG concentration of 125 uM ATP concentrations of 25 μM (for DGKA assay) or 50 μM (for DGKZ assay). The reactions were started by addition of DGK a and (kinases at 4 nM and 2 nM final concentrations, respectively. After 1 hour reaction, the amount of ADP formed was detected with the ADP-Glo kinase assay (Promega) according to the manufacturer instructions. Compounds were added in 11-points dose response, starting at […], 1:3 dilutions, with a final DMSO concentration of 2%. The multidrop combi was used as a liquid handler and luminescence was read with 0.5 s by the envision reader (PE).

Setting [1] is: Homo sapiens, T-cell, 24 h, IL2 after 24 hours, 20 μM reference compound A1 = 100%.

Sequence of DGKalpha (P23743 whole entry): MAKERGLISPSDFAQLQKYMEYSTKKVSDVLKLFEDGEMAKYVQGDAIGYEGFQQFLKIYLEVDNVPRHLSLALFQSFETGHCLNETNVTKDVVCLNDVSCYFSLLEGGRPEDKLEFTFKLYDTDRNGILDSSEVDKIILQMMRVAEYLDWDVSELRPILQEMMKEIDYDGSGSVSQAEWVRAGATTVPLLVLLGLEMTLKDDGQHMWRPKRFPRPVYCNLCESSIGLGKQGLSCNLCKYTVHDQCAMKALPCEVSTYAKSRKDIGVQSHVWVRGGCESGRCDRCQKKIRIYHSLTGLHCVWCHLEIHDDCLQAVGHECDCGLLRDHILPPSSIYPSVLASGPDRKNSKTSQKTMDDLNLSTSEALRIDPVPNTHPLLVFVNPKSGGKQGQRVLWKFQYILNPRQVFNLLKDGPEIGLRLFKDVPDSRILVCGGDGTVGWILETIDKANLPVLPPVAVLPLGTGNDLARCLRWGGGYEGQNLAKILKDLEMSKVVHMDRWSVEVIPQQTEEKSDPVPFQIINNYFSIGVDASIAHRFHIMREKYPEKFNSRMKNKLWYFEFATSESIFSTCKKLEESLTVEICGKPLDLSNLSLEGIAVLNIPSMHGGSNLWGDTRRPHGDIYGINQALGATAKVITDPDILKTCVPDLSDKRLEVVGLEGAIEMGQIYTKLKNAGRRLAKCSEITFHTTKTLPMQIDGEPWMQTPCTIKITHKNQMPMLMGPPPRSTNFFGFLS

For `CC(C)(c1nnc(-c2ccc3c(c2)N(Cc2ccc(-c4ccc(F)cn4)cc2)C(=O)[C@@H](N)CS3(=O)=O)o1)S(C)(=O)=O` [Example 9, (3R)-3-amino-5-[[4-(5-fluoro-2-pyridyl)phenyl]methyl]-7-[5-(1-methyl-1-methylsulfonyl-ethyl)-1,3,4-oxadiazol-2-yl]-1,1-dioxo-2,3-dihydro-1λ6,5-benzothiazepin-4-one], the Emax in the experiment on primary human T-cells (setting [1]) was determined as 65%. The EC50 in the experiment with primary human T-cells (Homo sapiens, T-cell, 24 h) stood at 5270 nM. For the same compound, on DGKalpha, the IC50 turned out to be 944 nM.

`CS(=O)(=O)C1(c2nnc(-c3ccc4c(c3)N(Cc3ccc(Oc5ccccc5)cc3)C(=O)[C@@H](N)CS4(=O)=O)o2)CC1` [Example 66, (3R)-3-amino-7-[5-(1-methylsulfonylcyclopropyl)-1,3,4-oxadiazol-2-yl]-1,1-dioxo-5-[(4-phenoxyphenyl)methyl]-2,3-dihydro-1λ6,5-benzothiazepin-4-one]: the Emax with primary human T-cells (setting [1]) worked out at 52%. Further, in the experiment with primary human T-cells (Homo sapiens, T-cell, 24 h), the EC50 came out at 9170 nM. The IC50 on DGKalpha was 10700 nM.

Turning to `CC(C)(c1nnc(-c2ccc3c(c2)N(Cc2ccc(OC(F)(F)F)cc2)C(=O)[C@@H](N)CS3(=O)=O)o1)S(C)(=O)=O` [Example 64, (3R)-3-amino-7-[5-(1-methyl-1-methylsulfonyl-ethyl)-1,3,4-oxadiazol-2-yl]-1,1-dioxo-5-[[4-(trifluoromethoxy)phenyl]methyl]-2,3-dihydro-126,5-benzothiazepin-4-one], in the experiment with primary human T-cells (setting [1]), the Emax was found to be 55%. In the experiment with primary human T-cells (Homo sapiens, T-cell, 24 h), the EC50 is 2490 nM. For the same compound, the IC50 at DGKalpha turned out to be 3260 nM.

Take `CC(C)(c1nnc(-c2ccc3c(c2)N(Cc2ccc(-c4ccc(C(F)(F)F)cn4)cc2)C(=O)[C@@H](N)CS3(=O)=O)o1)S(C)(=O)=O` [Example 10]: in the experiment with primary human T-cells (setting [1]), the Emax stood at 174%. The EC50 in the experiment on primary human T-cells (Homo sapiens, T-cell, 24 h) came out at 1770 nM. For the same compound, the IC50 against DGKalpha turned out to be 1020 nM.

As to `CC(C)(c1nnc(-c2ccc3c(c2)N(Cc2ccc(OCCC(F)(F)F)cc2)C(=O)[C@@H](N)CS3(=O)=O)o1)S(C)(=O)=O` [Example 23, (3R)-3-amino-7-[5-(1-methyl-1-methylsulfonyl-ethyl)-1,3,4-oxadiazol-2-yl]-1,1-dioxo-5-[[4-(3,3,3-trifluoropropoxy)phenyl]methyl]-2,3-dihydro-1λ6,5-benzothiazepin-4-one], the Emax in the experiment on primary human T-cells (setting [1]) was determined as 62%. In addition, the EC50 in the experiment with primary human T-cells (Homo sapiens, T-cell, 24 h) came to 7330 nM. Further, on DGKalpha, the IC50 came to 3080 nM.

Regarding `CC(C)(c1nc(-c2cc3c(cc2F)S(=O)(=O)C[C@H](N)C(=O)N3Cc2ccc(Oc3ccccc3)cc2)no1)S(C)(=O)=O` [Example 30, (3R)-3-amino-8-fluoro-7-[5-(1-methyl-1-methylsulfonyl-ethyl)-1,2,4-oxadiazol-3-yl]-1,1-dioxo-5-[(4-phenoxyphenyl)methyl]-2,3-dihydro-1λ6,5-benzothiazepin-4-one], the Emax in the experiment on primary human T-cells (setting [1]) is 265%. The EC50 in the experiment with primary human T-cells (Homo sapiens, T-cell, 24 h) came out at 485 nM. The IC50 on DGKalpha came out at 815 nM.

As to `CC(C)(c1nnc(-c2ccc3c(c2)N(Cc2ccc(Oc4cccc(Cl)c4Cl)cc2)C(=O)[C@@H](N)CS3(=O)=O)o1)S(C)(=O)=O` [Example 32, (3R)-3-amino-5-[[4-(2,3-dichlorophenoxy)phenyl]methyl]-7-[5-(1-methyl-1-methylsulfonyl-ethyl)-1,3,4-oxadiazol-2-yl]-1,1-dioxo-2,3-dihydro-1λ6,5-benzothiazepin-4-one], in the experiment with primary human T-cells (setting [1]), the Emax was 82%. For the same compound, in the experiment on primary human T-cells (Homo sapiens, T-cell, 24 h), the EC50 turned out to be 1100 nM. The compound further registered an IC50 against DGKalpha of 13400 nM.

In the case of `CC(C)(c1nc(-c2cc3c(cc2F)S(=O)(=O)C[C@H](N)C(=O)N3Cc2ccc(C3CCOCC3)cc2)no1)S(C)(=O)=O` [Example 53, (3R)-3-amino-8-fluoro-7-[5-(1-methyl-1-methylsulfonyl-ethyl)-1,2,4-oxadiazol-3-yl]-1,1-dioxo-5-[(4-tetrahydropyran-4-ylphenyl)methyl]-2,3-dihydro-1λ6,5-benzothiazepin-4-one], the Emax with primary human T-cells (setting [1]) was determined as 96%. Also, the EC50 in the experiment with primary human T-cells (Homo sapiens, T-cell, 24 h) came to 4360 nM. At DGKalpha, this compound registered a half-maximal inhibitory concentration (IC50) of 8050 nM.

Take `CC(C)(c1nc(-c2cc3c(cc2F)[S+]([O-])C[C@H](N)C(=O)N3Cc2ccc(Oc3ccccc3)cc2)no1)S(C)(=O)=O` (stereo partly drawn) [Example 52, (3R)-3-amino-8-fluoro-7-[5-(1-methyl-1-methylsulfonyl-ethyl)-1,2,4-oxadiazol-3-yl]-1-oxo-5-[(4-phenoxyphenyl)methyl]-2,3-dihydro-1λ4,5-benzothiazepin-4-one]: the “Emax IL2 (% activation)” value in the experiment with primary human T-cells (IL2 after 24 hours, 20 μM reference compound A1 = 100%) is reported as 253%. The concentration for a half-maximal effect (EC50) with primary human T-cells was 1170 nM. In addition, at DGKalpha, the IC50 stood at 1550 nM.

For `CC(C)(c1nnc(-c2ccc3c(c2)N(Cc2ccc(Oc4cccc(OC(F)(F)F)c4)cc2)C(=O)[C@@H](N)CS3(=O)=O)o1)S(C)(=O)=O` [Example 40, (3R)-3-amino-7-[5-(1-methyl-1-methylsulfonyl-ethyl)-1,3,4-oxadiazol-2-yl]-1,1-dioxo-5-[[4-[3-(trifluoromethoxy)phenoxy]phenyl]methyl]-2,3-dihydro-126,5-benzothiazepin-4-one], the Emax with primary human T-cells (setting [1]) worked out at 196%. Further, the EC50 with primary human T-cells (Homo sapiens, T-cell, 24 h) was 801 nM. The same compound returned an IC50 against DGKalpha of 1970 nM.

Regarding `CC(C)(c1nnc(-c2ccc3c(c2)N(Cc2ccc(Oc4cccc(Br)c4)cc2)C(=O)[C@@H](N)CS3(=O)=O)o1)S(C)(=O)=O` [Example 60, (3R)-3-amino-5-[[4-(3-bromophenoxy)phenyl]methyl]-7-[5-(1-methyl-1-methylsulfonyl-ethyl)-1,3,4-oxadiazol-2-yl]-1,1-dioxo-2,3-dihydro-1λ6,5-benzothiazepin-4-one], in the experiment with primary human T-cells (setting [1]), the Emax came to 106%. Moreover, in the experiment with primary human T-cells (Homo sapiens, T-cell, 24 h), the EC50 is 1180 nM. The compound further gave an IC50 against DGKalpha of 3800 nM.

In the case of `CC(C)(c1nnc(-c2ccc3c(c2)N(Cc2ccc(OCC(F)(F)F)cc2)C(=O)[C@@H](N)CS3(=O)=O)o1)S(C)(=O)=O` [Example 6, (3R)-3-amino-7-[5-(1-methyl-1-methylsulfonyl-ethyl)-1,3,4-oxadiazol-2-yl]-1,1-dioxo-5-[[4-(2,2,2-trifluoroethoxy)phenyl]methyl]-2,3-dihydro-1λ6,5-benzothiazepin-4-one], in the experiment on primary human T-cells (setting [1]), the Emax turned out to be 54%. Also, the EC50 in the experiment with primary human T-cells (Homo sapiens, T-cell, 24 h) came to 2660 nM. At DGKalpha, this compound gave an IC50 of 1780 nM.
